Laboratory results from PubChem BioAssay (NCI).
Where “and” joins values, the source holds several entries; their conditions need not be identical. Equal entries are not always repeated.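 The compound was tested at five concentrations on cells cultured in 96-well plates, with a 48-hour exposure period. Here, GI50 denotes the concentration required for 50% inhibition of growth. TGI: concentration producing complete growth inhibition.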

Experiments:
Test in all cases: NCI tumour cell line growth inhibition, 48 h
[1] = system: COLO 205 colon
[2] = system: PC-3 prostate
[3] = system: SF-539 CNS
[4] = system: SN12C renal
[5] = system: TK-10 renal
[6] = system: U251 CNS
[7] = system: UO-31 renal
[8] = system: CCRF-CEM leukemia
[9] = system: NCI-H226 lung
[10] = system: OVCAR-8 ovarian

Compound	TGI [1] [µM]	TGI [2] [µM]	TGI [3] [nM]	TGI [4] [µM]	TGI [5] [µM]	TGI [6] [µM]	TGI [7] [µM]	GI50 [8] [nM]	TGI [8]	GI50 [1] [nM]	GI50 [9] [nM]	TGI [9] [µM]	GI50 [10] [nM]	TGI [10] [µM]	GI50 [2] [nM]	GI50 [3] [nM]	GI50 [5] [nM]	GI50 [6] [nM]	GI50 [7] [nM]
O=C(O)C1CC2(C1)CC(C(=O)O)C2 (stereo not drawn)	> 100	> 100	> 100000	> 100	> 100	> 100	> 100												
COc1cc2c(cc1OC)C(Sc1ccc(SC)cc1)c1c(nc(N)c(C#N)c1N)O2 (stereo not drawn)	3.41	3.06	2880		2.95	2.66	2.6	571	4.28 µM	1710	1640	3.04	1930	3.47	1630	1550	1600	1370	1330
CC(=O)NC1C(OCc2ccccc2)OC(CO)C(O)C1OC(C)C(=O)N[C@@H](C)C(=O)N[C@H](CCC(=O)OCCNc1c2ccccc2nc2cccc([N+](=O)[O-])c12)C(N)=O (stereo partly drawn)	0.0026		16.1	0.0313	0.0631		0.0107		> 0.1 µM and 0.0189 µM			0.0217		0.028					
COC(=O)C1=C(c2ccc(OC)c(OC)c2)OC(c2cc(OC)c(OC)c(OC)c2)C1 (stereo not drawn)			> 100000	> 100	> 100	> 100	> 100		> 100 µM			> 100		> 100					
CCN(CC)c1ccc(N=Nc2ccc([N+](=O)[O-])cc2OC(=O)/C=C/c2ccccc2)c(OC(=O)/C=C/c2ccccc2)c1	> 100		> 27900	> 100	> 100	> 100	> 100		> 100 µM			> 100		> 100					
O=C1NC(=O)C(=Nc2cccc3c(=O)[nH][nH]c(=O)c23)C(c2nc3ccccc3s2)C1=O (stereo not drawn)	> 100			> 100	> 100	> 100	> 100		> 100 µM			> 100		> 100					
